Where a name gives a salt, the structure may show the parent alone.
Target: T1, OT receptors (OTR) in the BNSTdl (Rattus norvegicus, UniProt P70536)
T1 construct: OT (100 ng), OTA (200 ng), or ACSF (all in volume of 0.5 μl per side) was injected bilaterally into the BNSTdl; from tissue; host or cells: brain (dorsolateral bed nucleus of the stria terminalis) of live male Sprague-Dawley rats
T1 sequence (P70536 1-388): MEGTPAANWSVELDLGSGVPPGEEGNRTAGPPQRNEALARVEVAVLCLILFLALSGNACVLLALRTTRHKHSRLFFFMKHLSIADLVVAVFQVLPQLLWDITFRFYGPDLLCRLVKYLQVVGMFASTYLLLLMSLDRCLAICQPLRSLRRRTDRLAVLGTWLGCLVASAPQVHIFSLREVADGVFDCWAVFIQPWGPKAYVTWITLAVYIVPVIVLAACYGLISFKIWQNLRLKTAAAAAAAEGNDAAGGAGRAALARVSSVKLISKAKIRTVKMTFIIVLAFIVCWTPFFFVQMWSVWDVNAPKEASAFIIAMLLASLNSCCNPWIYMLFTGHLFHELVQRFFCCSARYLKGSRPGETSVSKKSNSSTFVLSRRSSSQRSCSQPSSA
Test: Fear-potentiated startle (FPS): intra-BNSTdl OT or OTA before cued fear conditioning, then fear recall testing
Type: in vivo
Settings: for TREATMENT effect on cued fear (percentage change of startle amplitude): OT 100 ng or OTA 200 ng bilateral intra-BNSTdl 10 min before fear conditioning, recall 24 h later in context B, P=0.0981; for TREATMENT effect on cued fear (percentage change of startle amplitude) / total discrimination index (DI) for the FPS session: one-way ANOVA ACSF/OT/OTA; for total discrimination index (DI) for the FPS session: all trials, P=0.1492; for discrimination between cued and non-cued fear (summary statement): infused into the BNSTdl before fear conditioning, FPS; for TREATMENT effect on cued fear (percent change), negative controls: injection sites outside the BNST, P=0.3990; for discrimination index over four time blocks, negative controls: injection sites outside the BNSTdl, P=0.5828; for discrimination index over four time blocks, negative controls / startle amplitude, light-noise vs noise-alone trials: effect of TREATMENT: two-way repeated measures ANOVA; for mean shock reactivity during the fear conditioning session / TREATMENT effect on percentage change of contextual fear / TREATMENT effect on percentage change of non-cued fear / startle amplitude, light-noise vs noise-alone trials: effect of TREATMENT: intra-BNSTdl ACSF, OT 100 ng, OTA 200 ng; for mean shock reactivity during the fear conditioning session: P=0.8684; for TREATMENT effect on percentage change of contextual fear: context A, day 5; for TREATMENT effect on percentage change of non-cued fear: context B, P=0.8993; for startle amplitude, light-noise vs noise-alone trials: effect of TREATMENT: P=0.8478
Description: A total of 75 rats were used for FPS experiments. The ACSF-treated group consisted of 23 rats, whereas there were 14 OT and 16 OTR antagonist (OTA)-treated rats included in the main analysis. […] These rats were analyzed as negative controls.
Stereotaxic surgery technique was identical to above except that guide cannulas were implanted bilaterally instead of a microdialysis probe (Moaddab and Dabrowska, 2017).
OT (100 ng), OTA (200 ng), or ACSF (all in volume of 0.5 μl per side) was injected bilaterally into the BNSTdl through a microinjector (28-gauge, 7 mm length; Plastics One, Roanoke, Va.) as described before (Moaddab and Dabrowska, 2017). Doses of OT and OTA were chosen based on previous studies on fear and anxiety in rats (Bale et al., 2001; Toth et al., 2012; Lahoud and Maroun, 2013; Neumann and Slattery, 2016; Moaddab and Dabrowska, 2017). Rats were assigned based on a second pre-test ASR into three treatment groups. Fear conditioning sessions were performed 10 min after the intra-BNSTdl injections.
FPS procedures were modified based on previous studies and according to protocol described in detail before (Walker et al., 2009; Missig et al., 2010; Ayers et al., 2011; Moaddab and Dabrowska, 2017). On days 1 and 2, rats underwent two pre-test sessions. On day 3 (fear conditioning), animals were placed in cylindrical enclosures containing a grid floor conveying foot shocks (as above). After 5 min acclimation, animals received 10 presentations of a 3.7 s cue light (CS), each co-terminating with a 0.5 s foot shock (US; 0.5 mA, inter-trial-interval 60-180 s). Background noise was absent during the conditioning session. Enclosures and chambers were cleaned with PREempt RTU disinfectant solution (Virox Technologies, Oakville, Canada) before and after each fear […] conditioning session (context A). Twenty-four hours later, on day 4, rats were tested for FPS expression (recall test) in context B. After 5 min of acclimation, they were exposed to 50 startle-eliciting WNBs (as above) and levels of cued and non-cued fear were measured. A background white noise of 70 dB continuously played throughout the session. The session consisted of 10 baseline startle trials (excluded from the analysis) followed by an additional 40 trials, with half presented in the presence of the cue light (CS+, light-noise) and the other half without the CS (CS-, noise-alone) in a pseudorandom order (inter-trial-interval 30 s). To make context A distinct from context B, enclosures and chambers were cleaned with 70% ethanol before and after the […] (different than in fear conditioning). The grid floor was also removed from the enclosures during cued FPS testing. In addition, a different experimenter from the training session performed the FPS testing session. On day 5, the same rats were tested for contextual fear recall in context A, where after 10 baseline startle trials (excluded from the analysis), startle amplitude was measured during 40 additional CS− trials (noise-alone, inter-trial-interval 30 s, FIG. 5, C).
Startle amplitude was defined as the maximum peak voltage within the first 200 ms after onset of the WNB. Shock reactivity amplitude was recorded during the fear conditioning session and was defined as the maximum peak voltage that occurred during the 500 ms foot shock delivery. Cued, non-cued, and contextual fear, were calculated as percent change scores of startle amplitude based on previous FPS studies (Walker et al., 2009; Missig et al., 2010; Ayers et al., 2011; Moaddab and Dabrowska, 2017).

Molecule	discrimination index in the fourth time block of fear memory recall, vs ACSF-treated group (OT 100 ng intra-BNSTdl, Bonferroni post hoc, P=0.0121)	TREATMENT effect on cued fear (percentage change of startle amplitude)	total discrimination index (DI) for the FPS session	discrimination between cued and non-cued fear (summary statement)	TREATMENT effect on cued fear (percent change), negative controls	discrimination index over four time blocks, negative controls	mean shock reactivity during the fear conditioning session	TREATMENT effect on percentage change of contextual fear	TREATMENT effect on percentage change of non-cued fear	startle amplitude, light-noise vs noise-alone trials: effect of TREATMENT	discrimination index in the fourth time block of fear memory recall, OT vs OTA-treated groups (OT 100 ng vs OTA 200 ng intra-BNSTdl, Bonferroni post hoc, P=0.0007)	OTA effect on cued fear vs ACSF (OTA 200 ng intra-BNSTdl, un-paired t-test vs ACSF, P=0.0763)
CC[C@H](C)[C@@H]1NC(=O)[C@H](Cc2ccc(O)cc2)NC(=O)[C@@H](N)CSSC[C@@H](C(=O)N2CCC[C@H]2C(=O)N[C@@H](CC(C)C)C(=O)NCC(N)=O)NC(=O)[C@H](CC(N)=O)NC(=O)[C@H](CCC(N)=O)NC1=O [OT, OT acetate salt]	significant differences in the discrimination indices	a trend in the TREATMENT effect on cued fear	not significantly different	significantly increases discrimination between cued and non-cued fear	no significant effect of TREATMENT on cued fear	no significant main effect of TREATMENT	not different	no TREATMENT effect	no TREATMENT effect	no main effect of TREATMENT	–	–
(d(CH2)5^1, D-Tyr^2, Thr4, Orn8, des-Gly-NH2 9)-vasotocin trifluoroacetate salt [OTA]	–	a trend in the TREATMENT effect on cued fear	not significantly different	disables this discrimination	no significant effect of TREATMENT on cued fear	no significant main effect of TREATMENT	not different	no TREATMENT effect	no TREATMENT effect	no main effect of TREATMENT	significant differences in the discrimination indices	a trend in the OTA effect on cued fear
